According to article PMC10461224, “Development of an Affinity-Based Probe to Profile Endogenous Human Adenosine A3 Receptor Expression” (Journal of Medicinal Chemistry, 2023):
Marks after values point to notes of the source that are not given here.

How the values were obtained:
hA3AR [1] = molecular target: T1, hA3AR (Homo sapiens, UniProt P0DMS8); assay: Single-point radioligand displacement, [3H]PSB-11; type: binding; settings: 1 μM probe; CHO cell membranes; co-incubated with radioligand 30 min at 25 °C; mean of two experiments
T1 construct: expressed in transfected cells; host or cells: CHO cells (CHOhA3AR), gift of Prof; K.N. Klotz, University of Würzburg; used as membrane fractions or live cells
T1 sequence (P0DMS8 1-318): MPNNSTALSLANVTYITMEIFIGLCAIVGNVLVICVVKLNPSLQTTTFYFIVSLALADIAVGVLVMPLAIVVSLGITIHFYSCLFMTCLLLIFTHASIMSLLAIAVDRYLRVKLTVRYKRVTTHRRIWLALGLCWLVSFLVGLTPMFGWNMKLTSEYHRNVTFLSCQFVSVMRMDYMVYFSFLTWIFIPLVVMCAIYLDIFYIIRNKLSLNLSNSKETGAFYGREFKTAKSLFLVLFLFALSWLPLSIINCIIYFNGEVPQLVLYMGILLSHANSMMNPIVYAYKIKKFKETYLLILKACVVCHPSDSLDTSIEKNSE
Experimental: Membrane aliquots containing 15 μg (CHOhA3AR), 5 μg (CHOhA1AR), or 30 μg (HEK293hA2AAR and CHO-spap-A2BAR) of protein were resuspended in assay buffer (A3AR: 50 mM Tris–HCl, pH 8.0, 10 mM MgCl2, 1 mM EDTA, 0.01% CHAPS; A1AR and A2AAR: 50 mM Tris–HCl, pH 7.4; A2BAR: 50 mM Tris–HCl, pH 7.4, 0.1% CHAPS). […] Nonspecific binding was determined in the presence of 100 μM NECA (A3AR), 100 μM CPA (A1AR), 100 μM NECA (A2AAR), and 10 μM ZM241385 (A2BAR). Incubations were terminated by rapid vacuum filtration to separate the bound and free radioligand through prewetted 96-well GF/C filter plates using a PerkinElmer Filtermate harvester. Filters were subsequently washed 12 times with ice-cold wash buffer (A3AR: 50 mM Tris–HCl, pH 8.0, 10 mM MgCl2, 1 mM EDTA; A1AR and A2AAR: 50 mM Tris–HCl, pH 7.4; A2BAR: 50 mM Tris–HCl, pH 7.4, 0.1% BSA). The plates were dried at 55 °C, and MicroscintTM-20 cocktail (PerkinElmer) was added subsequently.
Single point displacement values shown are mean percentages of two individual experiments performed in duplicate. All pKi values shown are mean values ± SEM of three individual experiments performed in duplicate.

hA3AR [2] = molecular target: T1, hA3AR; assay: Full curve radioligand displacement assay on the adenosine A3 receptor, [3H]PSB-11; type: binding; settings: mean ± SEM, n=3; for apparent pKi (pre-0 h) / apparent pKi (pre-4 h): CHO-hA3AR membranes, 25 °C; for apparent pKi (pre-0 h): 0.5 h co-incubation of probe and radioligand, no pre-incubation; for apparent pKi (pre-4 h): 4 h pre-incubation with probe then 0.5 h co-incubation with radioligand; for fold change, ratio Ki(0 h)/Ki(4 h): hA3AR
Experimental: Membrane aliquots containing 15 μg of protein (CHOhA3AR) were resuspended in assay buffer (50 mM Tris–HCl, pH 8.0, 10 mM MgCl2, 1 mM EDTA, 0.01% CHAPS). The competing ligand (concentrations ranging from 0.1 to 1000 nM) was added and pre-incubated with the membrane fractions for either 0 or 4 h. The radioligand (10 nM [^3H]PSB-11) was then added and incubated with the samples in a total volume of 100 μL of assay buffer for 30 min at 25 °C. Nonspecific binding was determined in the presence of 100 μM NECA. Incubations were terminated by rapid vacuum filtration through prewetted 96-well GF/C filter plates using a PerkinElmer Filtermate harvester. Filters were subsequently washed 12 times with ice-cold wash buffer (50 mM Tris–HCl, pH 8.0, 10 mM MgCl2, 1 mM EDTA). The plates were dried at 55 °C, and MicroscintTM-20 cocktail (PerkinElmer) was added subsequently. After 3 h, the filter-bound radioactivity was determined using a Tri-Carb 2810TR Liquid Scintillation Analyzer (PerkinElmer).
[…]. Single point displacement values shown are mean percentages of two individual experiments performed in duplicate. All pKi values shown are mean values ± SEM of three individual experiments performed in duplicate. Statistical analysis was performed using a one-way ANOVA test with multiple comparisons (****p < 0.0001).

hA3AR [3] = molecular target: T1, hA3AR; assay: Wash-out assay, [3H]PSB-11 binding after washing; settings: 1 μM compound, pre-incubated 2 h at 25 °C, washed 4 times
Experimental: 200 μL assay buffer (50 mM Tris–HCl, pH 8.0, 10 mM MgCl2, 1 mM EDTA and 0.01% CHAPS), 100 μL assay buffer containing the competing ligand (final concentration: 1 μM), and 100 μL of CHOhA3AR membrane fractions (100 μg protein) were combined and pre-incubated for 2 h at 25 °C while shaking. The ‘4× washed’ samples were centrifuged (5 min, 13,000 rpm, 4 °C), and the supernatant was removed. The resulting pellet was dissolved in 1 mL of assay buffer and incubated for 10 min at 25 °C while shaking. The ‘4× washed’ samples were then again centrifuged (2 min, 13,000 rpm, 4 °C), the supernatant was removed, and the resulting pellet was dissolved in 1 mL of assay buffer. The latter washing steps were repeated two times (four times washing total), and the final pellet was dissolved in 300 μL assay buffer. The radioligand (10 nM [^3H]PSB-11) in 100 μL of assay buffer was added to all samples, and the samples were incubated at 25 °C for 1 h. Nonspecific binding was determined in the presence of 100 μM NECA. Incubations were terminated by addition of 1 mL of ice-cold washing buffer (50 mM Tris–HCl, pH 8.0, 10 mM MgCl2, 1 mM EDTA) and rapid vacuum filtration through prewetted 96-well GF/B filter plates using a Brandel harvester. Filters were subsequently washed 5 times with ice-cold wash buffer. The plates were dried under vacuum, and a MicroscintTM-20 cocktail (PerkinElmer) was added subsequently. After 3 h, the filter-bound radioactivity was determined using a 2450 MicroBeta Microplate Counter (PerkinElmer).

C#CCOc1ccn2c(c1)nc1c2c(=O)n(CCC)c(=O)n1CCCNC(=O)c1ccc(S(=O)(=O)F)cc1 [compound 9, 4-((3-(2,4-Dioxo-8-(prop-2-yn-1-yloxy)-3-propyl-3,4-dihydropyrido[2,1-f]purin-1(2H)-yl)propyl)carbamoyl)benzenesulfonyl fluoride]
% specific [3H]PSB-11 displacement, hA3AR (hA3AR [1]): 95%
apparent pKi (pre-0 h) (hA3AR [2]): 7.27 ± 0.07
apparent pKi (pre-4 h) (hA3AR [2]): 8.40 ± 0.03 ^d
fold change, ratio Ki(0 h)/Ki(4 h) (hA3AR [2]): 13.5 ± 1.2
binding to hA3AR after wash-out ([3H]PSB-11 binding recovery) (hA3AR [3]): persistent binding

C#CCN(CCCn1c(=O)n(CCC)c(=O)c2c1nc1cc(OC)ccn12)C(=O)c1ccc(S(=O)(=O)F)cc1 [compound 5, 4-((3-(8-Methoxy-2,4-dioxo-3-propyl-3,4-dihydropyrido[2,1-f]purin-1(2H)-yl)propyl)(prop-2-yn-1-yl)carbamoyl)benzenesulfonyl fluoride]
% specific [3H]PSB-11 displacement, hA3AR (hA3AR [1]): 95%
apparent pKi (pre-0 h) (hA3AR [2]): 7.55 ± 0.01
apparent pKi (pre-4 h) (hA3AR [2]): 8.52 ± 0.05 ^d
fold change, ratio Ki(0 h)/Ki(4 h) (hA3AR [2]): 9.5 ± 1.0
binding to hA3AR after wash-out ([3H]PSB-11 binding recovery) (hA3AR [3]): persistent binding
